Like-named read-outs stand apart in the source and are kept apart here.
What was measured:
[1] = test system: NFF, neonatal foreskin fibroblasts; experiment: Cell survival assay (clonogenic survival, SRB), normal cells; format: cell-based, human; settings: SRB
Description: (§1) The cytotoxicities of the compounds of the invention were determined by clonogenic survival of human cancer cells (MM96L, melanoma) and human normal cells (NFF, neonatal foreskin fibroblasts). Cells were incubated with the compounds at various concentrations of compound (0.01-10 μg/mL) for 24 hours, washed, and then grown for a further four days in the absence of hydroxamic acid before determining cell survival by cell count. The final readout involved staining with sulforhodamine B (SRB), a cost-effective method amenable to automation and high throughput analysis. At the technical level, “cell sensitivity” is often inferred from short term (1-2 day) observations such as apoptosis, which may not be a satisfactory model of clonogenic survival.
(§2) Cell Lines and Culture Medium. All cell lines used in this study have been described previously (Parsons et al., 1986; Todaro et al., 1980; Glenn et al., 2004). All cell lines were cultured in 10% heat-inactivated foetal calf serum (CSL, Australia) in RPMI 1640 medium supplemented with 100 U/mL penicillin, 100 μg/mL streptomycin, and 3 mM HEPES at 5% CO2, 99% humidity at 37° C. Primary human fibroblasts were obtained from neonatal foreskins and cultured in the above medium. Routine mycoplasma tests were performed using Hoechst stain^i and were always negative.
(§3) Cell Survival Assay. Cells were plated into 96-well microtitre plates at 5×10^3 cells/well, and allowed to adhere overnight. Test compounds were added to culture medium at the indicated concentrations, and plates incubated in the above conditions for 24 hours. Following this incubation period, compounds and media were removed, and replaced with fresh culture medium. Cells were then grown for a further 72 hours before assay using sulforhodamine B (SRB; Sigma, St. Louis, Mo.) as previously described. Briefly, the culture medium was removed from the 96-well microtitre plates and the plates washed twice with phosphate buffered saline (PBS), before the cells were fixed with methylated spirits for 15 minutes. The plates were then rinsed with tap water and the fixed cells stained with 50 μL/well of SRB solution (0.4% sulforhodamine B (w/v) in 1% (v/v) acetic acid) over a period of 1 hour. The SRB solution was then removed from the wells and the plates rapidly washed two times with 1% (v/v) acetic acid. Protein bound dye was then solubilised with the addition of 100 μL of 10 mM unbuffered Tris, and incubated for 15 min at 25° C. Plates were then read at 564 nm on a VERSA max tunable microplate reader (Molecular Devices, Sunnyvale, Calif.).

MM96L melanoma cells = experiment: Cell survival assay (clonogenic survival, SRB); format: cell-based, human; settings: for SI (Selectivity Index = IC50 (NFF)/IC50 (MM96L)): NFF vs MM96L
Description: as §1, §2, §3

[2] = Table 8, 24 hours with compound, further growth, read-out: IC50 (μM) NFF
[3] = Table 8, 24 hours with compound, further growth, SRB, read-out: IC50 (μM) MM96
[4] = Table 8, IC50 (NFF)/IC50 (MM96L)
[5] = Homo sapiens, Fibroblast, 24 h, Table 6, 24 hours with compound, further growth, read-out: IC50 (μM) NFF
[6] = Homo sapiens, MM96L, 24 h, Table 6, 24 hours with compound, further growth, SRB, read-out: IC50 (μM) MM96L
[7] = Table 6, IC50 (NFF)/IC50 (MM96L)
[8] = Table 5, 24 hours with compound, further growth, read-out: IC50 NFF
[9] = Table 5, 24 hours with compound, further growth, SRB, read-out: IC50 MM96L
[10] = Table 5, Selectivity Index = IC50 (NFF)/IC50 (MM96L)
[11] = NFF normal fibroblasts, 24 h with compound, further 72 h growth, read-out: IC50 (uM) NFF
[12] = MM96L melanoma, 24 h with compound, further 72 h growth, SRB, read-out: IC50 (uM) MM96L
[13] = Homo sapiens, Fibroblast, NFF normal fibroblasts, 24 h with compound, further 72 h growth, read-out: IC50 (uM) NFF
[14] = Homo sapiens, MM96L, MM96L melanoma, 24 h with compound, further 72 h growth, SRB, read-out: IC50 (uM) MM96L
[15] = Homo sapiens, Fibroblast, 24 h, Table 7, 24 hours with compound, further growth, read-out: IC50 (μM) NFF
[16] = Homo sapiens, MM96L, 24 h, Table 7, 24 hours with compound, further growth, SRB, read-out: IC50 (μM) MM96L
[17] = Table 7, IC50 (NFF)/IC50 (MM96L)

`CN(C)c1ccc(C(=O)N[C@@H](CSCCCC(=O)NO)C(=O)NCc2ccc(C(=O)Nc3ccccc3)cc2)cc1` [Example 121] showed an IC50 [1, 2] of 11.6 µM, an IC50 (MM96L melanoma cells; [3]) of 1.41 µM and a Selectivity (MM96L melanoma cells; [4]) of 8.2.
`CN(C)c1ccc(C(=O)N[C@@H](CSCCCC(=O)NO)C(=O)N2CCCCC2)cc1` [Example 91] was tested, and the IC50 [1, 5] was 20 ± 2 µM, the IC50 (MM96L melanoma cells; [6]) was 4.9 ± 0.3 µM and the Selectivity (MM96L melanoma cells; [7]) was 4.2.
Work on `O=C(CCCSC[C@H](NC(=O)Cc1cccc2ccccc12)C(=O)NCc1ccccc1)NO` [Example 45] yielded an IC50 [1, 8] of 15 ± 1 µM, an IC50 (MM96L melanoma cells; [9]) of 4.1 ± 0.7 µM and a Selectivity (MM96L melanoma cells; [10]) of 3.7.
Work on `CN(C)c1ccc(C(=O)N[C@@H](CCCCCC(=O)NO)C(=O)NCc2ccccc2)cc1` [Example 123] yielded an IC50 [1, 11] of 1 ± 0.1 µM, an IC50 (MM96L melanoma cells; Homo sapiens, MM96L, most preferred compounds, exemplary examples, read-out: potency of IC50 against the MM96 melanoma cells) of no more than 0.5 µM and an IC50 (MM96L melanoma cells; [12]) of 0.16 ± 0.08 µM. The “SI (Selectivity Index = IC50 (NFF)/IC50 (MM96L))” value (MM96L melanoma cells) was 6.0.
With `CN(C)c1ccc(NC(=O)[C@H](CCCCCC(=O)NO)NC(=O)c2ccc(C(F)(F)F)cc2)cc1` [Example 152] the IC50 [1, 13] was 0.404 µM, the IC50 (MM96L melanoma cells; [14]) was 0.222 µM and the “SI (Selectivity Index = IC50 (NFF)/IC50 (MM96L))” value (MM96L melanoma cells) was 1.8.
In the case of `O=C(CCCCC[C@H](NC(=O)c1cccnc1)C(=O)NCc1ccccc1)NO` (racemic) [Example 134], the IC50 [1, 13] is reported as 24 ± 8 µM, the IC50 (MM96L melanoma cells; [14]) is reported as 9.5 ± 0.8 µM and the “SI (Selectivity Index = IC50 (NFF)/IC50 (MM96L))” value (MM96L melanoma cells) is reported as 2.5.
For `CN(C)c1ccc(NC(=O)c2ccc(CNC(=O)[C@H](CSCCCC(=O)NO)NC(=O)c3ccc(N(C)C)cc3)cc2)cc1` [Example 109], the IC50 [1, 2] was 2.42 µM, the IC50 (MM96L melanoma cells; [3]) was 0.54 µM and the Selectivity (MM96L melanoma cells; [4]) was 4.5.
`CN(C)c1ccc(C(=O)N[C@@H](CSCCCC(=O)NO)C(=O)Nc2cccc3scnc23)cc1` [Example 69] gave an IC50 [1, 5] of 3.3 ± 0.3 µM, an IC50 (MM96L melanoma cells; [6]) of 1.3 ± 0.1 µM and a Selectivity (MM96L melanoma cells; [7]) of 2.5.
Compound `CN(C)c1ccc(C(=O)N[C@@H](CSCCCC(=O)NO)C(=O)NCCc2ccc(Br)cc2)cc1` [Example 86] has an IC50 ([1]; Table 6, 24 hours with compound, further growth, read-out: IC50 (μM) NFF) of 2.6 ± 0.3 µM, an IC50 (MM96L melanoma cells; Table 6, 24 hours with compound, further growth, SRB, read-out: IC50 (μM) MM96L) of 1 ± 0.1 µM and a Selectivity (MM96L melanoma cells; [7]) of 2.6.
`O=C(/C=C/c1ccccc1)N[C@@H](CSCCCC(=O)NO)C(=O)NCc1ccccn1` [Example 102] showed an IC50 [1, 15] of 4.2 ± 0.4 µM, an IC50 (MM96L melanoma cells; [16]) of 0.8 ± 0.3 µM and a Selectivity (MM96L melanoma cells; [17]) of 5.3.
`O=C(/C=C/c1ccccc1)N[C@@H](CSCCCC(=O)NO)C(=O)NCc1ccccc1` [Example 48] gave an IC50 [1, 8] of 0.8 ± 0.2 µM, an IC50 (MM96L melanoma cells; [9]) of 0.2 ± 0.1 µM and a Selectivity (MM96L melanoma cells; [10]) of 4.0.
`CN(C)c1ccc(C(=O)NC(CSCCCC(=O)NO)C(=O)NCc2ccc(C(=O)NC3CCCc4ccccc43)cc2)cc1` (mixture of isomers) [Example 119] showed an IC50 [1, 2] of 1.74 µM, an IC50 (MM96L melanoma cells; [3]) of 0.93 µM and a Selectivity (MM96L melanoma cells; [4]) of 1.9.
With `O=C(/C=C/c1ccccc1)N[C@@H](CCCCCC(=O)NO)C(=O)NCc1ccccc1` [Example 153] the IC50 [1, 11] was 0.99 µM, the IC50 (MM96L melanoma cells; [12]) was 0.731 µM and the “SI (Selectivity Index = IC50 (NFF)/IC50 (MM96L))” value (MM96L melanoma cells) was 1.4.
In the case of `CN(C)c1ccc(C(=O)N[C@@H](CCCCCC(=O)NO)C(=O)NCc2ccccn2)cc1` [Example 127], the IC50 [1, 13] is reported as 33 ± 5 µM, the IC50 (MM96L melanoma cells; [14]) is reported as 3.6 ± 0.4 µM and the “SI (Selectivity Index = IC50 (NFF)/IC50 (MM96L))” value (MM96L melanoma cells) is reported as 9.1.
With `O=C(CCCCC[C@H](NC(=O)c1ccc(Br)cc1)C(=O)NCc1ccccc1)NO` [Example 136] the IC50 [1, 13] was 5.86 µM, the IC50 (MM96L melanoma cells; [14]) was 1.99 µM and the “SI (Selectivity Index = IC50 (NFF)/IC50 (MM96L))” value (MM96L melanoma cells) was 4.2.
With `CC(=O)c1cccc(NC(=O)[C@H](CSCCCC(=O)NO)NC(=O)c2ccc(N(C)C)cc2)c1` [Example 60] the IC50 [1, 5] was 1.6 ± 0.08 µM, the IC50 (MM96L melanoma cells; [6]) was 0.55 ± 0.05 µM and the Selectivity (MM96L melanoma cells; [7]) was 2.9.
For `O=C(/C=C/c1ccccc1)N[C@@H](CSCCCC(=O)NO)C(=O)NCc1cccnc1` [Example 101], the IC50 [1, 15] was 13.2 ± 0.7 µM, the IC50 (MM96L melanoma cells; [16]) was 0.9 ± 0.2 µM and the Selectivity (MM96L melanoma cells; [17]) was 15.1.
For `O=C(CCCCCC(NC(=O)C(Cc1ccccc1)NC(=O)Cc1c[nH]c2ccccc12)C(=O)NCc1ccccc1)NO` (centres unmarked) [Example 164], the IC50 [1, 11] was 9.76 µM.
